Data from US7521563B2, “Hydroxamic acid derivative and medicine containing the same as active ingredient” (Shizuoka Coffein Co., Ltd., priority 2004, dated 2009).

How the values were obtained:
IL-6 production = IL-6 production suppression test in LPS-stimulated PMA-differentiated THP-1 cells (ELISA); assay type: cell-based, Human; conditions: for IL-6 production suppression rate (%): THP-1 cells, LPS 1 μg/mL, 24 hours
Description: (§1) Tests were conducted with reference to the method by G. Lozanski et al. (J. Rheumatol., Vol. 19, 921-926, 1992).
(§2) Using a 10% fetal calf serum (FCS)-added PRMI-1640 medium, THP-1 cells (Dainippon Pharmaceutical Co., Ltd.) were prepared in an amount of 10^6/mL, and inoculated on a 48-well microplate in an amount of 500 μL per well. 10^−8 M of phorbol 12-myristate 13-acetate (PMA) was added to the wells, and the cells were cultured for 24 hours to induce differentiation of the cells to macrophages.
(§3) 50 μL of test substance diluting liquid or DMSO diluting liquid was added to the wells, and the cells were preincubated by a CO2 incubator at 37° C. for 30 minutes. 5 μL of LPS (111 μg/mL) (final concentration: 1 μg/mL) was added to each well. Furthermore, wells with no LPS added to the DMSO diluting liquid were set. After the cells were cultured for 24 hours, they were centrifuged to take cell supernatants, and the IL-6 level was measured using the Human IL-6 ELISA kit (Biosource International), and TNFα was measured using the Human tumor necrosis factor-α ELISA kit (Biosource International), by the enzyme-linked immunosorbent assay (ELISA).

THP-1 cells = assay: Evaluation of cytotoxicity by the MTT method; assay type: cell-based; conditions: DMSO well = 100%
Description: Cytotoxicity was evaluated by the MTT method.
Specifically, a 0.5 mg/mL solution of 3-(4,5-dimethyl-2-thiazolyl)-2,5-diphenyl-2H-tetrazolium bromide (MTT, Sigma) prepared in a 10% fetal calf serum (FCS)-added PRMI-1640 medium was added in an amount of 100 μL per well to cells with culture supernatants removed in test example 1, and the cells were cultured for 3 hours. The culture solution was removed by centrifugal separation, 100 μL of methanol was added to each well, and the absorbance was measured at a wavelength of 570 nm after cytolysis.
The absorbances for the well to which the DMSO diluting liquid was added and the well to which no LPS was added are 100% and 0%, respectively, the absorbances for wells of different doses of test substances are expressed as percentages, and the results are shown in Table 4.

TNFα production = TNFα production suppression test in LPS-stimulated PMA-differentiated THP-1 cells (ELISA); assay type: cell-based, Human; conditions: for TNFα production suppression rate (%): THP-1 cells, LPS 1 μg/mL, 24 hours
Description: as §1, §2, §3

[1] = active concentration 1 × 10^−7 M
[2] = concentration 1 × 10^−9 M (first column)
[3] = concentration 1 × 10^−9 M (second column, as printed)
[4] = active concentration 1 × 10^−6 M
[5] = range of concentrations 1×10^−5-−9 M

Row | SMILES | IL-6 production suppression rate (%) (IL-6 production; [1]) | Cytotoxicity test: absorbance (570 nm, MTT) expressed as percentage (THP-1 cells; concentration 1 × 10^−5 M) [%] | Cytotoxicity test: absorbance (570 nm, MTT) expressed as percentage (THP-1 cells; concentration 1 × 10^−6 M) [%] | Cytotoxicity test: absorbance (570 nm, MTT) expressed as percentage (THP-1 cells; concentration 1 × 10^−7 M) [%] | Cytotoxicity test: absorbance (570 nm, MTT) expressed as percentage (THP-1 cells; [2]) [%] | Cytotoxicity test: absorbance (570 nm, MTT) expressed as percentage (THP-1 cells; [3]) [%] | TNFα production suppression rate (%) (TNFα production; [4]) | IL-6 production suppression rate (%) (IL-6 production; [4]) | TNFα production suppression rate (%) (TNFα production; [1]) | IL-6 production suppressing activity (IL-6 production; [5]) | TNFα production suppressing activity (TNFα production; [5])
1 | O=C(CCCCCc1nc(-c2ccccc2)c(-c2ccccc2)o1)NO [Example 25, N-hydroxy-4,5-diphenyl-2-oxazolehexanamide] | 50 | 78.9 | 83.6 | 87.6 | 85.8 | 91.9 |  |  |  |  | 
2 | O=C(CCCCCc1nc(-c2ccccc2)c(-c2ccc(F)cc2)s1)NO [Example 8, 5-(4-fluorophenyl)-N-hydroxy-4-phenyl-2-thiazolehexanamide] |  | 88.9 | 113.7 | 106.7 | 106.7 | 105.3 | 40 |  |  |  | 
3 | O=C(CCCCCCc1nc(-c2ccccc2)c(-c2ccccc2)o1)NO [Example 24, N-hydroxy-4,5-diphenyl-2-oxazoleheptanamide] | 50 | 83.8 | 91.8 | 88.1 | 96.4 | 83.9 |  |  |  |  | 
4 | O=C(CCCCCc1ncc(-c2ccc(Br)cc2)s1)NO [Example 20, 5-(4-bromophenyl)-N-hydroxy-2-thiazolehexanamide] |  | 82.3 | 97.6 | 102.0 | 95.6 | 104.0 |  | 64 | 44 |  | 
5 | O=C(O)CCCCCc1nc(-c2ccccc2)c(-c2ccccc2)o1 [4,5-diphenyl-2-oxazolehexanoic acid, reference compound] |  |  |  |  |  |  |  |  |  | no activity | no activity
